Experimental findings from patent US11160797B2, “Pyridinone derivatives and their use as selective ALK-2 inhibitors” (NOVARTIS AG, priority 2017, dated 2021) are described below.

SMILES strings stand for the structures.

For one test, the system named is C57BL/6J male mice. The note with it: mouse, in vivo.
The target in test [1] is T1, wild-type ALK2 (aa172-499) (Homo sapiens (Human), UniProt Q04771). As to the kind of experiment: Caliper biochemical peptide phosphorylation assay, ALK2. The settings on record: Caliper peptide phosphorylation, 15 uM ATP; read-out: ALK2 IC50.
T1 sequence (Q04771 172-499): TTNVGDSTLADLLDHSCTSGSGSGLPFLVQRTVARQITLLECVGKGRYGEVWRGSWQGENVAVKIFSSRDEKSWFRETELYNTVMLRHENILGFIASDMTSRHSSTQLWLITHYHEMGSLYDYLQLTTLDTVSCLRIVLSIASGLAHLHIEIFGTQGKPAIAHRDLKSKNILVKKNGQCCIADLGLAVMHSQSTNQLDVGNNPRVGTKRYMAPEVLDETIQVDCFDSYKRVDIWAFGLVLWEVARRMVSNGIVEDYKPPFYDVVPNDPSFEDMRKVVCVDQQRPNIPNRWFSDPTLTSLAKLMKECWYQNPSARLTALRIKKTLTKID
Test [2] concerns 18-month-old Wistar female rats. As to the kind of experiment: Bone gain in aged rats (pQCT and micro-CT, proximal tibia metaphysis). The class given is in vivo, rat. The settings on record: 5 mg/kg q.d. oral, 8 weeks, mean ± SEM. The procedure:
To assess the bone anabolic potential of compound A, its therapeutic efficacy in aged female rats as a model of age-related human osteoporosis and other low bone mass conditions was tested. To this end, 18-month-old Wistar female rats (n=8-9 rats per group; body weight range: 330-460 g) were subjected to two-month once daily oral treatment with compound A (5 mg/kg q.d.) or vehicle (sodium carboxymethyl cellulose:water:Tween 80, 0.5:99:0.5). Rats were housed at 25° C. with a 12:12 h light-dark cycle and were fed a standard rodent diet containing 18.2% protein and 3.0% fat with an energy content of 15.8 MJ/kg (3890, Provimi Kliba SA) with food and water provided ad libitum. Treatment efficacy was determined by in vivo peripheral quantitative computed tomography (pQCT) and micro-computed tomography (micro-CT) in the left proximal tibia metaphysis under isoflurane inhalation narcosis (Stratec-Norland XCT-2000 pQCT; voxel size: 0.1 mm×0.1 mm×0.5 mm; vivaCT40 instrument, Scanco Medical AG; 12.5 μm resolution) after 8 weeks of treatment. […] The latter was related to enhanced trabecular thickness, but not number. Thus, compound A is bone anabolic in the aged skeleton.

The subject of the next test is female Wistar rats. As to the kind of experiment: Achilles midpoint tenotomy-induced heterotopic ossification in rats. Format: in vivo, rat. The note with it: 10 mg/kg q.d. oral. From the text:
To test whether compound A was able to prevent trauma-induced heterotopic ossification (HO) of soft tissue, we tested its therapeutic efficacy in a rat model of unilateral Achilles midpoint tenotomy (Rooney et al., Matrix 12: 274-281, 1992). To this end, the left Achilles tendon of 8-week-old female Wistar rats (body weight between 190-265 g) was completely transected using a sterile scalpel (blade number 11) under isoflurane inhalation narcosis with concomitant analgesic treatment applying 0.03 mg/kg buprenorphine for 48 hours every 10-12 h subcutaneously. Preventive oral treatment with compound A (10 mg/kg q.d.) or vehicle (sodium carboxymethyl cellulose:water:Tween 80, 0.5:99:0.5) was given for 10 weeks starting on the day of surgery (n=11-12 rats per group). […] Treatment efficacy was assessed longitudinally by taking radiographs of the operated distal leg (Faxitron LX-60 system) at 4 and 10 weeks post-tenotomy. Heterotopic bone volume was quantified in vivo by micro-computed tomography (micro-CT) under isoflurane inhalation narcosis (vivaCT40 instrument, Scanco Medical AG; 17.5 μm resolution) at 6 and 9 weeks post-surgery. […]

A further test has as its system ALK2(Q207D) mice. As to the kind of experiment: ALK2-dependent heterotopic ossification in ALK2(Q207D) transgenic mice. The class given is in vivo, mouse. The settings on record: 3 and 5 weeks post-induction, 10 mg/kg b.i.d. oral.
Test [3] addresses ALK2 FOP mutant (aa172-499 R206H) (Homo sapiens (Human), UniProt Q04771, R206H). As to the kind of experiment: Caliper biochemical peptide phosphorylation assay, ALK2 FOP. The note with it: Caliper peptide phosphorylation, R206H, 15 uM ATP; read-out: ALK2 FOP EPK IC50.
Test [4] deals with T1, wild-type ALK2 (aa172-499). The experiment in a line: ADPGlo biochemical autophosphorylation assay, ALK2. The note with it: 15 uM ATP.
In the next test the target is ALK5 (aa162-503) (Homo sapiens (Human), UniProt P36897). As to the kind of experiment: Caliper biochemical peptide phosphorylation assay, ALK5. The settings on record: 15 uM ATP. The gist of the method:
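Baculovirus-expressed human GS+kinase-domain constructs (10 nM) with 2 uM fluorescein-labelled peptide and 15 uM ATP in 50 mM Hepes pH 7.5, 1 mM MgCl2, 12 mM MnCl2, 1 mM DTT, 10 uM Na3VO4, 60 min at 30 °C. EDTA stop; phospho/unphosphorylated peptide separated by microfluidic electrophoresis, r = p/(p+s); IC50 at half-maximal signal inhibition.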

In the next test the test system is male Sprague Dawley rats. The experiment in a line: Turpentine oil-induced increase in serum hepcidin in rats. Format: in vivo, rat. The note with it: for Serum hepcidin concentration: 24 h post-TO.
The next test has as its target ALK6 (aa168-495) (Homo sapiens (Human), UniProt O00238). The experiment in a line: Caliper biochemical peptide phosphorylation assay, ALK6. The settings on record: 15 uM ATP.
The next test has as its target ALK3 (aa198-525) (Homo sapiens (Human), UniProt P36894). The experiment in a line: ADPGlo biochemical autophosphorylation assay, ALK3. The note with it: 15 uM ATP.
For test [5], the system named is HuH7 cells, BMP response element (BRE) luciferase reporter, BMP6 stimulated. The experiment in a line: BMP signaling reporter gene assay. Format: cell-based. The settings on record: Homo sapiens, Huh-7; BMP6 100 ng/ml; read-out: MSD HuH7 cell BMP reporter IC50.
Method: A human liver hepatocellular carcinoma cell line (HuH7) stably transfected with a reporter plasmid consisting of the human BMP response element (BRE) from the Id1 promoter fused to a luciferase reporter gene was generated through lentiviral transduction.
Assays were performed in 384-well flat bottom polystyrene microtiter plates (cell culture treated) with sterile lids. The cells were starved through medium exchange in Blasticidine- and FCS-free medium 16 h before the assay. Prior to the assay, cells were detached from the stock flask using trypsin/EDTA and counted. A cell suspension in the same medium without Blasticidin and FCS was prepared. 2×10^4 cells in a total volume of 40 ul were added to each well of a plate already containing serial dilutions of each compound in DMSO (final DMSO concentration 0.5%). […] Assay plates are incubated for another 5 hours at 37° C., 5% CO2 before luciferase levels are measured.
The amount of expressed luciferase is quantified using the Steady-Glo® Luciferase Assay System (Promega #E2520).
The target in another test is ALK1 (aa166-493) (Homo sapiens (Human), UniProt P37023). The experiment in a line: Caliper biochemical peptide phosphorylation assay, ALK1. The note with it: 15 uM ATP.
Sequence of ALK1 (aa166-493) (P37023 166-493): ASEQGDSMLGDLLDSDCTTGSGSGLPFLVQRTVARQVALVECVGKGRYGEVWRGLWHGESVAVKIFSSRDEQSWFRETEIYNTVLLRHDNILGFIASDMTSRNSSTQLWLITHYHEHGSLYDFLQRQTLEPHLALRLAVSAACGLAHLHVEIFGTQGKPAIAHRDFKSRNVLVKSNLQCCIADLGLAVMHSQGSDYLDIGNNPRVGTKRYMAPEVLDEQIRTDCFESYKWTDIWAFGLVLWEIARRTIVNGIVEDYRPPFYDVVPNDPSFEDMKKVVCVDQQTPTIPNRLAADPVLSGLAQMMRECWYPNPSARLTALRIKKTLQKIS

Sequence of ALK3 (aa198-525) (P36894 198-525): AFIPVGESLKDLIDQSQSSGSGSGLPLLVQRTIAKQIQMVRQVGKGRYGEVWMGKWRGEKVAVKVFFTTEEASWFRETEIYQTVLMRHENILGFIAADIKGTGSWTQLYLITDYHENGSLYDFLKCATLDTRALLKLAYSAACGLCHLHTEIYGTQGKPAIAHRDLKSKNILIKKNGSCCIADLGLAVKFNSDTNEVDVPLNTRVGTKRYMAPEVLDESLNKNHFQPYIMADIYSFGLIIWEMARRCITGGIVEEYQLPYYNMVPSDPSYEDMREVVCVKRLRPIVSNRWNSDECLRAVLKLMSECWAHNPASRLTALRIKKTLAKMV
Sequence of ALK5 (aa162-503) (P36897 162-503): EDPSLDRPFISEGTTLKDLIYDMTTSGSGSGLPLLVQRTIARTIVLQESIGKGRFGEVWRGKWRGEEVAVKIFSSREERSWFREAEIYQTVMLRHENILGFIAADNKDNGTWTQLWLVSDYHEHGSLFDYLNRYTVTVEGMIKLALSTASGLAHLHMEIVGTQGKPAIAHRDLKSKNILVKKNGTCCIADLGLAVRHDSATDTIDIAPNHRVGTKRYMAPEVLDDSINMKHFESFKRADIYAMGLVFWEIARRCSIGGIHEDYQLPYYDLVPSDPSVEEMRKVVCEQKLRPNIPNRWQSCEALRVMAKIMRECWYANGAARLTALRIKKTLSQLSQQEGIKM
Sequence of ALK2 FOP mutant (aa172-499 R206H) (Q04771 172-499 R206H): as the sequence (Q04771 172-499) above, with R35H counted along it
Sequence of ALK6 (aa168-495) (O00238 168-495): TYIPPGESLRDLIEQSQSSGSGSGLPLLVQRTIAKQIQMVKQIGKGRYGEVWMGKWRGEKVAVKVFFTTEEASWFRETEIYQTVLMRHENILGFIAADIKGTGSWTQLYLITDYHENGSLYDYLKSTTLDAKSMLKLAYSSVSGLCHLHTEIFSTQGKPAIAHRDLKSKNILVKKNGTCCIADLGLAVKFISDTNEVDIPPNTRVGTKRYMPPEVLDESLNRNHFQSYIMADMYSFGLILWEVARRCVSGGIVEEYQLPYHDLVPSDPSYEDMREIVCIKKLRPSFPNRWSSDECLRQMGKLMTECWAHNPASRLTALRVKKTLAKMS
Method for male Sprague Dawley rats: Measurements of serum hepcidin concentration were performed using a custom-made LC-MRM assay.
6 hours post-TO application sublingual blood samples were taken and serum was prepared from whole blood using clot activator centrifugation tubes (Sarstedt). […] 24 h post-TO application rats were sacrificed by CO2 overdosing and blood was isolated by venipuncture for serum preparation as described above. […] Statistical analyses were performed using GraphPad Prism software (GraphPad Software, Inc., La Jolla, Calif.) by two-way repeated measurement analysis of variance followed by Dunnett's multiple comparisons post-hoc test comparing treatment groups to the vehicle control group.

As for `CC(C)n1cc(-c2cncc(-c3ccc4c(c3)CC(=O)N4C)c2)ccc1=O` [Example 1, 5-(1′-isopropyl-6′-oxo-1′,6′-dihydro-[3,3′-bipyridin]-5-yl)-1-methylindolin-2-one], in the test with C57BL/6J male mice, the Blood hemoglobin result was “significantly improved” and the Hematocrit result was “significantly improved”. In test [1], the IC50 turned out to be 110 nM. For the same compound, in [2] (micro-CT), the “Cancellous BV/TV, %-change versus baseline” value is recorded as 8.9 ± 3.0 %; the “Cortical thickness, %-change versus baseline” value was found to be 12.0 ± 2.2 %; the “Total BMD, %-change versus baseline” value amounted to 5.6 ± 0.6 %; the “Trabecular number, %-change versus baseline” value is recorded as −0.6 ± 5.4%. In addition, in test [2] (micro-CT), the “Trabecular thickness, %-change versus baseline” value turned out to be 11.1 ± 2.9 %. For the same compound, in test [2] (pQCT), the “Total BMC, %-change versus baseline” value came out at 4.3 ± 1.7 %. Also, the “Animals with radiographic evidence of beginning HO” value with female Wistar rats (4 weeks post-tenotomy, vehicle 100%) is listed as 67%. The “Total heterotopic bone volume” value in the test on female Wistar rats (6 and 9 weeks post-surgery, versus vehicle) is “significant reduction of HO”. In the test with ALK2(Q207D) mice, the “Females in which heterotopic bone was absent (micro-CT)” value was “four of five” and the “Heterotopic bone (total heterotopic bone volume, micro-CT), males” value is reported as “absent”. In addition, the “Female mice with radiographic evidence of HO” value with ALK2(Q207D) mice (vehicle 67%) was “one out of five”. In addition, the “Male mice with radiographic evidence of HO” value with ALK2(Q207D) mice (vehicle 83%) is recorded as “none”. Besides, the IC50 in test [3] turned out to be 90 nM. For the same compound, half-maximal inhibition in [4] (IC50) required 110 nM. Further, the IC50 on ALK5 (aa162-503) is 2600 nM. In addition, the Serum hepcidin levels result in the test with male Sprague Dawley rats (6 hours post-TO, 3 or 10 mg/kg p.o.) was “strongly suppressed”. Besides, the Serum hepcidin concentration entry with male Sprague Dawley rats (3 mg/kg p.o.) is given as “returned to levels of vehicle-treated TO-challenged rats”. In the test with male Sprague Dawley rats (10 mg/kg p.o., p<0.001), the Serum hepcidin concentration result is given as “significantly reduced”.
As to `CC(C)n1nc(-c2cncc(-c3ccc4c(c3)CC(=O)N4C)c2)ccc1=O` [Example 44, 5-(5-(1-isopropyl-6-oxo-1,6-dihydropyridazin-3-yl)pyridin-3-yl)-1-methylindolin-2-one], the IC50 in test [1] was 90 nM; on ALK6 (aa168-495) it was 3050 nM; at ALK3 (aa198-525), 1000 nM; in test [3], 80 nM; in test [4] it was 110 nM; against ALK5 (aa162-503), 5700 nM. The IC50 in test [5] was 230 nM; against ALK1 (aa166-493), 670 nM.
Take `CC(C)n1cc(-c2cncc(-c3ccc4c(c3)CC(=O)N4CCO)c2)ccc1=O` [Example 45, 1-(2-hydroxyethyl)-5-(1′-isopropyl-6′-oxo-1′,6′-dihydro-[3,3′-bipyridin]-5-yl)indolin-2-one]: the IC50 in [1] is 120 nM; against ALK6 (aa168-495), 1250 nM; on ALK3 (aa198-525), 1100 nM; in test [3], 100 nM; in test [4], 160 nM; against ALK5 (aa162-503), 5000 nM. Further, the IC50 was 210 nM in [5] and 890 nM against ALK1 (aa166-493).
Take `CC(C)n1cc(-c2cncc(-c3ccc4c(c3)CC(=O)N4C)n2)ccc1=O` [Example 46, 5-(6-(1-isopropyl-6-oxo-1,6-dihydropyridin-3-yl)pyrazin-2-yl)-1-methylindolin-2-one]: the IC50 was 120 nM in test [1]; 2500 nM at ALK6 (aa168-495); 930 nM on ALK3 (aa198-525); 110 nM in test [3]; 150 nM in test [4]; 5000 nM at ALK5 (aa162-503). Moreover, the IC50 in test [5] worked out at 130 nM; against ALK1 (aa166-493) it was 620 nM.
For `CC(C)n1cc(-c2cncc(-c3ccc4c(c3)CC(=O)N4CCCO)c2)ccc1=O` [Example 47, 1-(3-hydroxypropyl)-5-(1′-isopropyl-6′-oxo-1′,6′-dihydro-[3,3′-bipyridin]-5-yl)indolin-2-one], the IC50 in test [1] amounted to 140 nM; against ALK6 (aa168-495), 1500 nM; at ALK3 (aa198-525), 1120 nM; in test [3], 150 nM; in test [4], 175 nM; against ALK5 (aa162-503), 4200 nM. Further, the IC50 in test [5] stood at 280 nM; against ALK1 (aa166-493), 1100 nM.
`CC(C)n1cc(-c2cncc(-c3ccc4c(c3)CS(=O)(=O)N4C)c2)ccc1=O` [Example 48, 1-isopropyl-5′-(1-methyl-2,2-dioxido-1,3-dihydrobenzo[c]isothiazol-5-yl)-[3,3′-bipyridin]-6(1H)-one]: the IC50 came to 60 nM in test [1]; 1000 nM on ALK6 (aa168-495); 283 nM against ALK3 (aa198-525); 60 nM in [3]; 71 nM in test [4]; 2400 nM against ALK5 (aa162-503). Moreover, the IC50 in test [5] turned out to be 83 nM; on ALK1 (aa166-493), 210 nM.
